In patent publication US20240148819A1, “COMPOUNDS FOR USE IN THE TREATMENT OF SINUSITIS, PNEUMONIA OR OTITIS” (PHARMA HOLDINGS AS, priority 2021, published 2024):
≈ marks a conversion by molar mass, not a printed value. Where “and” joins values, the source holds several entries; their conditions need not be identical. Equal entries are not always repeated. Where two headings read alike, the source gives them in different places.

Key:
MDCK-II cells = settings: 1% LTX-109 (w/v) in PBS, 1 h, after filtration, no virus; dilution up to which cytotoxicity on MDCK-II cells was seen
Protocol: (§7) A parallel test where the same procedure was carried out in the absence of virus was included to determine any residual cytotoxic effect of the formulation on the assay cells.

HeLa cells [1] = assay: Parallel test without virus for residual cytotoxicity (Example 7); format: cell-based, human; settings: 3% LTX-109 (w/v) or 0.25% SDS, after dilution (50 μl in 5 ml), no virus
Protocol: as §7

HeLa cells [2] = settings: 1% LTX-109 (w/v) or 0.25% SDS, after filtration, no virus, dilution showing cytotoxicity
Protocol: as §7

[3] = test system: SARS-CoV-2 Isolate England02/2020; format: cell-based
Rhinovirus 60, 2268-CV37 = assay: TCID50 assay after 1 h incubation of virus with 3% LTX-109, stopped by dilution (Example 7); format: cell-based
Candida tropicalis = Candida tropicalis - ATCC750 - reference strain
Protocol: (§1) Bacterial and fungal isolates used in this study were from various sources worldwide stored at GR Micro Ltd. and maintained, with minimal sub-culture, deep frozen at −70° C. as a dense suspension in a high protein matrix of undiluted horse serum.
(§2) Minimum inhibitory concentration (MIC) of LTX-109 was determined using the following microbroth dilution methods for antimicrobial susceptibility testing published by the Clinical and Laboratory Standards Institute (CLSI, formerly NCCLS): • M7-A6 Vol. 23 No. 2 Jan. 2003 Methods for Dilution Antimicrobial Susceptibility Tests for Bacteria that Grow Aerobically; Approved Standard-Sixth Edition. National Committee for Clinical Laboratory Standards. • M100-S15 Vol. 25 No 1. January 2005 Performance Standards for Antimicrobial Susceptibility Testing; Fifteenth Informational Supplement. Clinical and Laboratory Standards Institute • M11-A6 Vol. 24 No. 2 Methods for Antimicrobial Susceptibility Testing of Anaerobic Bacteria; Approved Standard-Sixth Edition. National Committee for Clinical Laboratory Standards. • M27-A2 Vol. 22 No. 15 Reference Method for Broth Dilution Antifungal Susceptibility Testing of Yeasts; Approved Standard-Second Edition. National Committee for Clinical Laboratory Standards. • M38-A Vol. 22 No. 16 Reference Method for Broth Dilution Antifungal Susceptibility Testing of Filamentous Fungi; Approved Standard. National Committee for Clinical Laboratory Standards.
(§3) MIC estimations were performed using wet plates, containing the LTX-109, prepared at GR Micro Ltd.
(§4) Yeast and filamentous fungal MIC were performed in MOPS buffered RPMI 1640 medium (MOPS buffer obtained from Sigma Aldrich Ltd., RPMI 1640 obtained from Invitrogen Ltd, Paisley, Scotland). The yeast inocula were in the range 7.5×10^2-4×10^3 CFU/mL and the filamentous fungi approximately 8×10^3-1×10^5 CFU/mL.
(§5) Following normal practice all the plates containing Mueller-Hinton broth were prepared in advance, frozen at −70° C. on the day of preparation and defrosted on the day of use. Fungal, Haemophilus and anaerobic MIC determinations were all performed in plates prepared on the same day.

Aspergillus niger = Aspergillus niger - G. R. Micro collection
Protocol: as §1, §2, §3, §4, §5

Candida krusei = Candida krusei - ATCC6258 - reference strain
Protocol: as §1, §2, §3, §4, §5

Candida parapsilosis = Candida parapsilosis - ATCC90018 - reference strain
Protocol: as §1, §2, §3, §4, §5

Candida albicans = test system: Candida albicans
Protocol: as §1, §2, §3, §4, §5

Vero cells = settings: 1% LTX-109 (w/v), 1 h, after filtration, no virus
Protocol: as §7

[4] = test system: Respiratory Syncytial Virus (RSV); assay: TCID50 assay after 1 h incubation of virus with LTX-109 (Example 2); format: cell-based; settings: for Percentage: decrease in RSV infectivity, compared to PBS control
Protocol: To test whether 1% LTX-109 (w/v) and 0.1% LTX-109 (w/v) have antiviral activity against RSV, 1×10^5 infectious units of RSV (40 μl) were incubated with four volumes of 1% LTX-109 or 0.1% LTX-109 dissolved in PBS (160 μl) or a PBS (Phosphate-buffered saline) control. The experiment was performed in triplicates.
After 1 hour, the incubation was stopped by adding an excess of cold media, and the formulation was physically separated from the virus through a filter to reduce cytotoxicity on the assay cells. Some cloudiness in the preparation was observed, particularly for the 1% formulation, but no precipitation. Infectious virus was quantified through a serial dilution (a series of ten-fold dilutions) on monolayers of Hep2 cells in microtitre plates (Hep2 cells are mammalian cells capable of displaying a cytopathic effect (CPE) upon viral infection). The starting solution for the serial dilution (i.e. the neat (or undiluted) solution) was obtained by re-suspending the virus that was separated via the filtration step in 1 ml of media. For each dilution of the virus in the dilution series, eight wells of the microtitre plate were tested (i.e. each dilution of virus was applied to eight separate wells, each well containing a Hep2 cell monolayer). Appropriate controls were also performed. […] The TCID50 (TCID50/ml) assay (Tissue Culture Infectious Dose 50 assay) is a type of endpoint dilution assay that is well known in the art and routinely used to quantitatively measure virus titres. TCID50/ml provides a measure of infectious units of virus/ml. “/ml” refers to/ml of the starting solution (i.e. neat/undiluted solution) mentioned above.

Moraxella catarrhalis = test system: Moraxella catarrhalis
Protocol: as §1, §2, §3
(§6) Cation-adjusted Mueller-Hinton broth (Oxoid Ltd., Basingstoke, UK and Trek Diagnostic Systems Ltd., East Grinstead, UK) (supplemented with 5% laked horse blood for Streptococcus spp.) was used for aerobic bacteria, with an initial inoculum of approximately 10^5 colony-forming units (CFU)/mL.
as §5

Streptococcus pyogenes = Streptococcus pyogenes - macrolide (MLS) resistant clinical isolate
Protocol: as §1, §2, §3, §6, §5

Streptococcus pneumoniae = test system: Streptococcus pneumoniae
Protocol: as §1, §2, §3, §6, §5

**Q.** Which “With Filtration (cytotoxicity)” value (MDCK-II cells) does the source give for `CC(C)(C)c1cc(C(C)(C)C)c2[nH]c(C(C)(C)C)c(CC(NC(=O)C(N)CCCNC(=N)N)C(=O)NC(CCCNC(=N)N)C(=O)NCCc3ccccc3)c2c1` (centres unmarked) [LTX-109] here?
**A.** Up to 10^−1

**Q.** And the Cytotoxicity (HeLa cells [1])?
**A.** Neat

**Q.** And the Cytotoxicity (HeLa cells [2])?
**A.** Neat

**Q.** And the Log [3]?
**A.** 2.28

**Q.** And the Percentage [3]?
**A.** 99.99% and 99.995%

**Q.** What about the Log decrease (Rhinovirus 60, 2268-CV37; Rhinovirus, 3% LTX-109 or 0.25% SDS, 1 hour, compared to PBS control) of the same compound?
**A.** 1.9 log

**Q.** What about the Percentage (Rhinovirus 60, 2268-CV37; decrease in Rhinovirus infectivity, 3% LTX-109 or 0.25% SDS, 1 hour, compared to PBS control) of the same compound?
**A.** 98.87%

**Q.** What about the Log (Rhinovirus 60, 2268-CV37; log of Rhinovirus titre after 1 hour with 3% LTX-109 or 0.25% SDS) of the same compound?
**A.** 2.3

**Q.** What about the MIC (Candida tropicalis) of the same compound?
**A.** 4 µg/mL (≈ 5.08 µM)

**Q.** And the MIC (Aspergillus niger)?
**A.** 8 µg/mL (≈ 10.2 µM)

**Q.** And the MIC (Candida krusei)?
**A.** 4 µg/mL (≈ 5.08 µM)

**Q.** And the MIC (Candida parapsilosis)?
**A.** 16 µg/mL (≈ 20.3 µM)

**Q.** And the MIC (Candida albicans; Candida albicans - ATCC24433 - reference strain)?
**A.** 8 µg/mL (≈ 10.2 µM)

**Q.** And the MIC (Candida albicans; Candida albicans - ATCC90028 - reference strain)?
**A.** 8 µg/mL (≈ 10.2 µM)

**Q.** What about the “With Filtration (cytotoxicity)” value (Vero cells) of the same compound?
**A.** Up to 10^−1

**Q.** What about the Percentage ([4]; 0.1% LTX-109, 1 h) of the same compound?
**A.** 99.9% and 99.97%

**Q.** What about the Percentage ([4]; 1% LTX-109, 1 h) of the same compound?
**A.** 99.9% and 99.949%

**Q.** What about the Log ([4]; log of RSV titre after 1 h with 0.1% LTX-109) of the same compound?
**A.** 1.78

**Q.** What about the Log ([4]; log of RSV titre after 1 h with 1% LTX-109) of the same compound?
**A.** 2.20

**Q.** What about the MIC (Moraxella catarrhalis; Moraxella catarrhalis - reduced fluoroquinolone susceptibility clinical isolate) of the same compound?
**A.** 8 µg/mL (≈ 10.2 µM)

**Q.** What about the MIC (Moraxella catarrhalis; Moraxella catarrhalis - β-lactamase positive clinical isolate) of the same compound?
**A.** 4 µg/mL (≈ 5.08 µM)

**Q.** And the MIC (Streptococcus pyogenes)?
**A.** 16 µg/mL (≈ 20.3 µM)

**Q.** And the MIC (Streptococcus pneumoniae; Streptococcus pneumoniae - multi-drug resistant clinical isolate)?
**A.** 32 µg/mL (≈ 40.6 µM)

**Q.** What about the MIC (Streptococcus pneumoniae; Streptococcus pneumoniae - penicillin intermediate clinical isolate) of the same compound?
**A.** 32 µg/mL (≈ 40.6 µM)

**Q.** And the MIC (Streptococcus pneumoniae; Streptococcus pneumoniae - penicillin resistant clinical isolate)?
**A.** 16 µg/mL (≈ 20.3 µM)

**Q.** What about the MIC (Streptococcus pneumoniae; Streptococcus pneumoniae - penicillin susceptible clinical isolate) of the same compound?
**A.** 32 µg/mL (≈ 40.6 µM)
